Laboratory results taken from patent US12048706B2, “Methods of treating epilepsy or status epilepticus” (Sage Therapeutics, Inc., priority 2012, dated 2024).
Where two headings read alike, the source gives them in different places.

Assays:
[1] = Plasma exposure of allopregnanolone from human SE study; type: in vivo; conditions: by Day 2; continuous IV infusion 86 μg/kg/h; single SRSE patient
Method: FIG. 2. Plasma exposure of allopregnanolone from human SE study. Plasma concentration profile over time of allopregnanolone in a single patient. The patient was dosed allopregnanolone (ALLO) at 1.5 mg/mL in 6% hydroxypropyl-β-cyclodextrin in 0.9% sodium chloride intravenously for 5 days (120 h). The infusion rate was 86 μg/kg/h. The patient was dosed 5.6 mg/h of allopregnanolone at 3.8 mL/h. Plasma concentration was analyzed 2 hours prior to the start of infusion and then 52, 76, 100, 124, and 148 hours post-infusion.
(§1) At the time that allopregnanolone was started, the patient was still in a pentobarbital-induced coma as well as receiving lacosamide, phenobarbital, clonazepam, and levetiracetam. The patient was started on allopregnanolone at a continuous infusion rate of 86 μg/kg/h for 5 days, after which the allopregnanolone was rapidly tapered and discontinued over a 24-hour period. Plasma samples were drawn at 5 h, 29 h, 53 h, 77 h, 101 h, 125 h, 149 h, and 173 h and are shown on FIG. 2. The plasma level rose and by Day 2 had achieved the target level of 150 nmoles/L. The pentobarbital was tapered and discontinued over the first 36 hours of allopregnanolone therapy. […] They continued to improve and was conversant, making jokes, and in a rehabilitation facility as of April 2013.

patient in SRSE = experiment: Treatment of one patient in super-refractory status epilepticus (SRSE) with allopregnanolone infusion; type: in vivo, human
Excerpt: A physician at the Massachusetts General Hospital, Boston, Mass. treated one patient in SRSE with allopregnanolone in a hydroxyl-propyl beta cyclodextrin formulation. The patient was a previously-healthy, person, college graduate who was started on allopregnanolone on their 92nd day of SRSE.
During their hospital course, the patient had previously been treated with propofol, midazolam, lacosamide, phenytoin, phenobarbital, ketamine, clonazepam, levetiracetam, valproate, pentobarbital, topiramate, steroids, pyridoxine, coq-10, lidocaine, electroconvulsive therapy (ECT), bromides, hypothermia, a ketogenic diet, and acupuncture.
as §1

[2] = tested on: patients with status epilepticus; conditions: cited from earlier work

CC(=O)[C@H]1CC[C@H]2[C@@H]3CC[C@H]4C[C@H](O)CC[C@]4(C)[C@H]3CC[C@]12C [allopregnanolone, 3 alpha-hydroxy-5 alpha-pregnan-20-one]
plasma level [1]: 150 nM | adverse events attributed to allopregnanolone (patient in SRSE; 86 μg/kg/h for 5 days, then taper over 24 hours): no adverse events | EEG (patient in SRSE; 36-hour time point, patient entirely weaned from pentobarbital, infusion 86 μg/kg/h): had begun to normalize | clinical state of the patient (patient in SRSE; at 72 hours, infusion 86 μg/kg/h): awake and followed simple midline commands

O=C1Nc2ccc(Cl)cc2C(c2ccccc2Cl)=NC1O (stereo not drawn) [lorazepam]
patients who did not respond to first line treatment ([2]; intravenous (IV) treatment): 36.6%

Cc1ncc2n1-c1ccc(Cl)cc1C(c1ccccc1F)=NC2 [midazolam]
patients who did not respond to first line treatment ([2]; intramuscular (IM) treatment): 26.6%
